# Data published in PMC5651913, “Photosensing and Thermosensing by Phytochrome B Require Both Proximal and Distal Allosteric Features within the Dimeric Photoreceptor” (Scientific Reports, 2017).
# T1: full-length (FL) PhyB (Arabidopsis thaliana, UniProt P14713)
# T1 construct: full length, 1172 residues; N-terminal 6His-TEV tag cut off; intron-less gene; E. coli BL21(DE3); homodimer, 320 kDa by SEC
# T1 sequence (P14713 1-1172): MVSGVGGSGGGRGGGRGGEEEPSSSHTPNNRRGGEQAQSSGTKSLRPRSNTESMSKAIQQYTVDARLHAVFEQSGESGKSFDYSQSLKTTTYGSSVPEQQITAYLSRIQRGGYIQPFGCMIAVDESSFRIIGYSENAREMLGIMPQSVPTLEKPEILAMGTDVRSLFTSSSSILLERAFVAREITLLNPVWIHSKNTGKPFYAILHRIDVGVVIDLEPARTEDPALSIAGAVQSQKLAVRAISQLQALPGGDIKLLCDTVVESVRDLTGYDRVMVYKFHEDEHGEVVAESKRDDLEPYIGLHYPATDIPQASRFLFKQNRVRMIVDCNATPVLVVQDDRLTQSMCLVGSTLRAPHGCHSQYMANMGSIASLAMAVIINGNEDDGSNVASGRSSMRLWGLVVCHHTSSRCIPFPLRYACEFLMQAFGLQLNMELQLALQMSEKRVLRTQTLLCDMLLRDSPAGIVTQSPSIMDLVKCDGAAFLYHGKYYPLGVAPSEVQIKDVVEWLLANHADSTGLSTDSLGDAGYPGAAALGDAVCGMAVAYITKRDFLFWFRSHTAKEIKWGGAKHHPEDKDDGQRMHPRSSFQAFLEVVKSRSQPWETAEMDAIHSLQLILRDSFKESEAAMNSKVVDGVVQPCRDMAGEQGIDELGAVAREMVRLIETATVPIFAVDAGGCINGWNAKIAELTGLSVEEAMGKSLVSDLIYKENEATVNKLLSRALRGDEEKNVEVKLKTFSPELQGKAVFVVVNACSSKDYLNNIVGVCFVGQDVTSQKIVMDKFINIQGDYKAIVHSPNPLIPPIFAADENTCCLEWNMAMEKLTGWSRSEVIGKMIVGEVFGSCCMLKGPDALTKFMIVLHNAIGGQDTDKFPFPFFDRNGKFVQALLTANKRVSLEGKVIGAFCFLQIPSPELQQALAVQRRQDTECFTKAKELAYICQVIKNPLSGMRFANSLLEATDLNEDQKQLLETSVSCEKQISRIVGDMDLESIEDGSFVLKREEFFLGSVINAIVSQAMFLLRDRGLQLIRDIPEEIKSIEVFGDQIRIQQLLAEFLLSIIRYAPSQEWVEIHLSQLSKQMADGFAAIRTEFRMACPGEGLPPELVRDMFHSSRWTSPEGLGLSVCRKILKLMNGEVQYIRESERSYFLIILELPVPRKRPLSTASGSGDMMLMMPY
# T2: PhyB 1–450 fragment (Arabidopsis thaliana, UniProt P14713)
# T2 construct: NTE-PAS-GAF, residues 1-450; N-terminal 6His-TEV tag cut off; E. coli BL21(DE3)
# T2 sequence (P14713 1-450): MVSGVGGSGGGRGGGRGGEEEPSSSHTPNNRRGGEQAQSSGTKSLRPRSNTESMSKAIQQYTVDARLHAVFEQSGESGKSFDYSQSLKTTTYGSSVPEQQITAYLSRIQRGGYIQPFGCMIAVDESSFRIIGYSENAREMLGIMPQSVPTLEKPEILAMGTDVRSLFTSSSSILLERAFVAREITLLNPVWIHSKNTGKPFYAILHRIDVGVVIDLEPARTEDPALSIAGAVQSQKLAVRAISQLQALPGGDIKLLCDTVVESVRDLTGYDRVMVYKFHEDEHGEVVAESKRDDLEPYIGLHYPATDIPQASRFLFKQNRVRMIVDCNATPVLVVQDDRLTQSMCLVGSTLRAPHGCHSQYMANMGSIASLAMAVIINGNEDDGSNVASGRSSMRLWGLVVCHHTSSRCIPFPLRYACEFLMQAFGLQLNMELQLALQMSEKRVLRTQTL
# T3: PhyB 1–624 fragment (PSM) (Arabidopsis thaliana, UniProt P14713)
# T3 construct: photosensory module (NTE-PAS-GAF-PHY), residues 1-624; N-terminal 6His-TEV tag cut off; E. coli BL21(DE3)
# T3 sequence (P14713 1-624): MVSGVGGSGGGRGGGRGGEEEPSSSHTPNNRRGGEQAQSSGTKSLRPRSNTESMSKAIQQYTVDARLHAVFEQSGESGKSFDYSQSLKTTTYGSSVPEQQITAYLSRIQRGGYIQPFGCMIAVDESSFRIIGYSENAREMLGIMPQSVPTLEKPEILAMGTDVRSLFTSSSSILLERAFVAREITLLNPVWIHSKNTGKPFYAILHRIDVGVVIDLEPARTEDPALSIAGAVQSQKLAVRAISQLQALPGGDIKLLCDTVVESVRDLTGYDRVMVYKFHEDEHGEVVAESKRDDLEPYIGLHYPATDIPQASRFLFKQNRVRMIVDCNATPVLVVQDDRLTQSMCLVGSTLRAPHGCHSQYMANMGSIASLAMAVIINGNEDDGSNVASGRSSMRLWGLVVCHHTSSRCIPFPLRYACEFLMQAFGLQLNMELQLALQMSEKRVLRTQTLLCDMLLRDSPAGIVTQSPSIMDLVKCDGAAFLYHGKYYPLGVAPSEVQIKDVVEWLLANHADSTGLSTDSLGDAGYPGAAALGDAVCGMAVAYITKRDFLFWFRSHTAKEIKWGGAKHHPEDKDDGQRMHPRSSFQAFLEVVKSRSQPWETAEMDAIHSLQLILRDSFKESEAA
# T4: PhyB 1–908 fragment (Arabidopsis thaliana, UniProt P14713)
# T4 construct: residues 1-908 (HKRD removed); N-terminal 6His-TEV tag cut off; E. coli BL21(DE3)
# T4 sequence (P14713 1-908): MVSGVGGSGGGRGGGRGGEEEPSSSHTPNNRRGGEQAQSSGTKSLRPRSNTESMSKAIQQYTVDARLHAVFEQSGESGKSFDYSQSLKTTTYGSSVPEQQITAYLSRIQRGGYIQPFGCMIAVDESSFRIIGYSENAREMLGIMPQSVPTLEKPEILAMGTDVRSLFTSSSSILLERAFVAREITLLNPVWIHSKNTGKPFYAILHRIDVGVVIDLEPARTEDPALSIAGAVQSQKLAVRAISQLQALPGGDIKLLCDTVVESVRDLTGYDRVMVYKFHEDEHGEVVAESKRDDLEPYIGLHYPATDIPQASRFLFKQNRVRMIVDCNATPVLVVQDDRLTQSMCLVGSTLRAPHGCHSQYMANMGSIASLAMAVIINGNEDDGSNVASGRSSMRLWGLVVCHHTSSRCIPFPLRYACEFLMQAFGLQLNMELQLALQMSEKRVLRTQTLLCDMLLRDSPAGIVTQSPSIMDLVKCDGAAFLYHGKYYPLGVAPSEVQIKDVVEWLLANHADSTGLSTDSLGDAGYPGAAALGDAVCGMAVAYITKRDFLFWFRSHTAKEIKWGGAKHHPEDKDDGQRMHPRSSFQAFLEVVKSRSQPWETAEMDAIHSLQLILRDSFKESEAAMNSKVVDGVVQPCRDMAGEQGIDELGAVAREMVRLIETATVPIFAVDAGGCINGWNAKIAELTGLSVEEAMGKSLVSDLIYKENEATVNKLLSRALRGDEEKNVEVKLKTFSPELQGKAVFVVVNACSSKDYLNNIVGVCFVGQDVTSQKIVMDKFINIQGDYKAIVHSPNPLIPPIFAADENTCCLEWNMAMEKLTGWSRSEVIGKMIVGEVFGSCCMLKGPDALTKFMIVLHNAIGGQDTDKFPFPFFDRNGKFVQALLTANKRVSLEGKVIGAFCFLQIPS
# Legend:
# full-length (FL) PhyB = target: T1, full-length (FL) PhyB; assay: assembly in E. coli, zinc-induced fluorescence after SDS-PAGE, UV-Vis absorption; format: binding; settings: covalent; GAF domain cysteine; 25 °C, pH 7.9
# PhyB 1–450 fragment = target: T2, PhyB 1–450 fragment; assay: as above; format: binding; settings: covalent; GAF domain cysteine; 25 °C, pH 7.9
# [1] = target: T5, PhyB 100–624 (NTE truncation) (Arabidopsis thaliana, UniProt P14713); assay: as above; format: binding; settings: covalent; GAF domain cysteine; 25 °C, pH 7.9
# T5 construct: PSM residues 100-624; N-terminal 6His-TEV tag cut off; E. coli BL21(DE3)
# [2] = target: T3, PhyB 1–624 fragment (PSM); assay: as above; format: binding; settings: covalent; GAF domain cysteine; 25 °C, pH 7.9
# [3] = target: T6, PhyB 51–624 (NTE truncation) (Arabidopsis thaliana, UniProt P14713); assay: as above; format: binding; settings: covalent; GAF domain cysteine; 25 °C, pH 7.9
# T6 construct: PSM residues 51-624; N-terminal 6His-TEV tag cut off; E. coli BL21(DE3)
# [4] = target: T7, PhyB 90–624 (NTE truncation) (Arabidopsis thaliana, UniProt P14713); assay: as above; format: binding; settings: covalent; GAF domain cysteine; 25 °C, pH 7.9
# T7 construct: PSM residues 90-624; N-terminal 6His-TEV tag cut off; E. coli BL21(DE3); 4OUR is an earlier structure of this fragment
# PhyB 1–908 fragment = target: T4, PhyB 1–908 fragment; assay: as above; format: binding; settings: covalent; GAF domain cysteine; 25 °C, pH 7.9
# [5] = target: the molecule itself; assay: SEC; Superdex 200 HR 10/30, 10 °C, 150 mM KCl, 50 mM HEPES-NaOH pH 7.8, 0.3 mM TCEP; samples as Pr at 0.6 mg/ml; apparent mass from size standards; monomer to dimer
Molecule,"assembly in E. coli, zinc-induced fluorescence after SDS-PAGE, UV-Vis absorption (full-length (FL) PhyB)","assembly in E. coli, zinc-induced fluorescence after SDS-PAGE, UV-Vis absorption (PhyB 1–450 fragment)","assembly in E. coli, zinc-induced fluorescence after SDS-PAGE, UV-Vis absorption [1]","assembly in E. coli, zinc-induced fluorescence after SDS-PAGE, UV-Vis absorption [2]","assembly in E. coli, zinc-induced fluorescence after SDS-PAGE, UV-Vis absorption [3]","assembly in E. coli, zinc-induced fluorescence after SDS-PAGE, UV-Vis absorption [4]","assembly in E. coli, zinc-induced fluorescence after SDS-PAGE, UV-Vis absorption (PhyB 1–908 fragment)",stoichiometry N [5]
C/C=C1/C(=C/c2[nH]c(/C=C3N=C(/C=C4\NC(=O)C(CC)=C4C)C(C)=C\3CCC(=O)O)c(CCC(=O)O)c2C)NC(=O)[C@@H]1C [PCB],recombinant PhyB assembled with PCB with efficiencies equal to that seen for PΦB,the fragment assembled with PCB generated as least some of a ‘Pfr’-like state,,,,,,
C=CC1=C(C)/C(=C/C2=NC(=C\c3[nH]c(/C=C4\NC(=O)[C@H](C)\C4=C/C)c(C)c3CCC(=O)O)/C(CCC(=O)O)=C2C)NC1=O [PΦB],purified chromoproteins were readily obtained with high bilin occupancy and near normal Pr absorption,The truncations were expressed and assembled with PΦB in Escherichia coli,"all of the truncations expressed well, efficiently assembled with PΦB, and displayed normal Pr absorption",The truncations were expressed and assembled with PΦB in Escherichia coli,"all of the truncations expressed well, efficiently assembled with PΦB, and displayed normal Pr absorption","all of the truncations expressed well, efficiently assembled with PΦB, and displayed normal Pr absorption",The truncations were expressed and assembled with PΦB in Escherichia coli,
"full-length Arabidopsis thaliana PhyB assembled with PΦB (natural protein, UniProt P14713 1-1172, looked up, phytochromobilin (PΦB) covalently bound to the cysteine of the GAF domain, Phytochrome B (PhyB), Arabidopsis thaliana, full-length 1172-residue polypeptide, from an intron-less PhyB gene designed for recombinant expression; Analysed as Pr; TEV cleavage of the printed tag probably leaves its last G at the N-terminus (surmised); also called FL PhyB; FL) MVSGVGGSGGGRGGGRGGEEEPSSSHTPNNRRGGEQAQSSGTKSLRPRSNTESMSKAIQQYTVDARLHAVFEQSGESGKSFDYSQSLKTTTYGSSVPEQQITAYLSRIQRGGYIQPFGCMIAVDESSFRIIGYSENAREMLGIMPQSVPTLEKPEILAMGTDVRSLFTSSSSILLERAFVAREITLLNPVWIHSKNTGKPFYAILHRIDVGVVIDLEPARTEDPALSIAGAVQSQKLAVRAISQLQALPGGDIKLLCDTVVESVRDLTGYDRVMVYKFHEDEHGEVVAESKRDDLEPYIGLHYPATDIPQASRFLFKQNRVRMIVDCNATPVLVVQDDRLTQSMCLVGSTLRAPHGCHSQYMANMGSIASLAMAVIINGNEDDGSNVASGRSSMRLWGLVVCHHTSSRCIPFPLRYACEFLMQAFGLQLNMELQLALQMSEKRVLRTQTLLCDMLLRDSPAGIVTQSPSIMDLVKCDGAAFLYHGKYYPLGVAPSEVQIKDVVEWLLANHADSTGLSTDSLGDAGYPGAAALGDAVCGMAVAYITKRDFLFWFRSHTAKEIKWGGAKHHPEDKDDGQRMHPRSSFQAFLEVVKSRSQPWETAEMDAIHSLQLILRDSFKESEAAMNSKVVDGVVQPCRDMAGEQGIDELGAVAREMVRLIETATVPIFAVDAGGCINGWNAKIAELTGLSVEEAMGKSLVSDLIYKENEATVNKLLSRALRGDEEKNVEVKLKTFSPELQGKAVFVVVNACSSKDYLNNIVGVCFVGQDVTSQKIVMDKFINIQGDYKAIVHSPNPLIPPIFAADENTCCLEWNMAMEKLTGWSRSEVIGKMIVGEVFGSCCMLKGPDALTKFMIVLHNAIGGQDTDKFPFPFFDRNGKFVQALLTANKRVSLEGKVIGAFCFLQIPSPELQQALAVQRRQDTECFTKAKELAYICQVIKNPLSGMRFANSLLEATDLNEDQKQLLETSVSCEKQISRIVGDMDLESIEDGSFVLKREEFFLGSVINAIVSQAMFLLRDRGLQLIRDIPEEIKSIEVFGDQIRIQQLLAEFLLSIIRYAPSQEWVEIHLSQLSKQMADGFAAIRTEFRMACPGEGLPPELVRDMFHSSRWTSPEGLGLSVCRKILKLMNGEVQYIRESERSYFLIILELPVPRKRPLSTASGSGDMMLMMPY",,,,,,,,2
